Read-outs that look alike come from different tables or passages of the source.
Experiments:
[1] = test system: 1-4 Hz slow wave EEG; experiment: 1-4 Hz slow wave EEG amplitude; format: in vivo, male Wistar rats
[2] = biological target: muscarinic receptors; format: binding, rat; settings: Table 2
Protocol: The potencies of ligand binding at central muscarinic binding sites were determined by analysis of competition with the specific muscarinic receptor radioligand [^3 H]-quinuclidinyl benzilate ([^3 H]-QNB). […] Competition between various concentrations of putative nicotinic ligand compounds and 0.2 nM [^3 H]-QNB was performed at 25° C. in an assay volume of 1 mL. After 75 minutes, the bound radioligand was separated by vacuum filtration on Whatman GF/B glass fiber filters. Non-specific binding was defined as radioactivity remaining in the presence of 10 μM atropine. Competition curves were analyzed for Ki values as described above for binding to the nicotinic receptor.

[3] = test system: neuronal nicotinic cholinergic channels in PC12 cells; experiment: Cholinergic channel activator action in PC12 cells, whole-cell patch-clamp; format: cell-based, rat; settings: PC12 cells; mean ± S.E.M.
Protocol: Electrophysiologic recordings were obtained from differentiated (neurite-bearing) cells after 4-7 days exposure to NGF. […] After 20 minutes, differentiating medium was added (DMEM containing 100 ng/ml nerve growth factor, 5% heat-inactivated fetal calf serum and 2.5% heat-inactivated horse serum) and the cells were refed with this medium every 3 days.
The intracellular (recording pipette) solution consisted of 140 mM KCl, 1.0 mM CaCl2, 2.0 mM MgCl2, 11 mM K-EGTA, and 10 mM K-HEPES buffer (7.3 pH, 315 mOsm). Osmolarities were adjusted using dextrose such that the extracellular solution was 10 mOsm hypertonic compared to the intracellular solution. Voltage-gated inward (sodium) and outward (potassium) currents were monitored throughout the experiment to determine establishment and maintenance of the whole-cell recording configuration.

[4] = biological target: neuronal nicotinic receptors; experiment: Displacement of [3H]-MCC or [3H]-cytisine from neuronal nicotinic receptors, whole rat brain membranes; format: binding
Protocol: Binding of [^3 H]-methylcarbamylcholine ([^3 H]-MCC) or [^3 H]-cytisine ([^3 H]-CYT) to nicotinic receptors was accomplished using crude synaptic membrane preparations from whole rat brain (Snyder and Enna, Brain Research, 1975, 100:81). Washed membranes were stored at -80° C. prior to use. Frozen aliquots were slowly thawed and resuspended in 20 volumes of buffer (containing: 120 mM NaCl, 5 mM KCl, 2 mM MgCl2, 2 mM CaCl2 and 50 mM Tris-Cl, pH 7.4 @4° C). After centrifuging at 20,000 X g for 15 minutes, the pellets were resuspended in 30 volumes of buffer. Homogenate (containing 125-150 μg protein) was added to triplicate tubes containing concentrations of test compound and [^3 H]-MCC (3 nM) in a final volume of 500 μL. Samples were incubated for 60 minutes at 4° C., then rapidly filtered through Whatman GF/B filters presoaked in 0.5% polyethylimine using 3×4 mL of ice-cold buffer. Alternately, homogenate and test compound were incubated for 75 min with [^3 H]-CYT (1.3 nM), then rapidly filtered, as described above. The filters are counted in 4 mL of Ecolume® (ICN). […] IC50 values were determined with the ALLFIT nonlinear least squares curve-fitting program and IC50 values were converted to Ki values using the Cheng and Prusoff correction (Ki =IC50 /(1+[ligand]/Kd of ligand)). Alternately, data were expressed as a percentage of the total specific binding.

[5] = test system: ethanol-induced narcosis; format: in vivo, male CD1 mice; settings: post-treatment
From the text: It is known that administration of ethanol to mice induces a state of narcosis in the animals. […] It is also known that certain compounds can modify the narcotic effect of ethanol in this model.
Animals: Male CD1 mice (Charles-River Co., Portage, Mich.) weighing 25-30 g were used in the experiments. Upon arrival they were caged in groups of 14 and allowed to acclimatize to laboratory conditions for one week before the beginning of the studies. They were fed standard rodent diet with food and water ad libitum.
Duration of sleep time: Mice received intraperitoneal (i.p.) injections of ethanol and either saline or one of the drug treatments. Upon loss of the righting reflex, a timer was started to record the duration of the sleep time until the reflex was recovered. Two types of experiments were conducted to study the effect of drugs before (pre-treatment) or after (post-treatment) the injection of the narcotic dose of ethanol. In the pre-treatment experiments the drugs were injected i.p., 15 minutes before ethanol. In the post-treatment experiments the drugs were administered i.p., 1 minute after the animals lost the righting reflex, which was approximately 5 minutes after administration of ethanol.
Drugs: Ethanol was prepared as a 20% v/v (16% w/v) solution in saline. Based on previous studies, a dose of 87 mmol/kg (4 g/kg) was selected as the narcotic dose. RO 15-4513, the benzodiazepine receptor inverse agonist discussed in the Background section, was purchased from RBI (Natick, Mass.). It was dissolved in saline solution with Tween-80 and ultrasonically homogenized for 3 minutes. […] The compounds of Examples 2 and 4, both novel neuronal nicotinic receptor ligands according to the present invention, were also dissolved in saline to the desired concentrations.

[6] = test system: anxiety induced by (-)-nicotine withdrawal; experiment: Elevated plus-maze 48 hours after withdrawal of 14-day chronic (-)-nicotine; format: in vivo, rats; settings: for TIME OPEN ARMS: chronic (-)-nicotine, mean ± SEM
From the text: The mouse elevated plus-maze is a conflict test that probes anxiolytic activity of test compounds (Lister, Psychopharmacology, 1987, 92:180). It is based on the fact that exposure of mice to an elevated open arm leads to an avoidance response considerably stronger than that evoked by exposure to an enclosed arm. Compounds may be tested for their ability to modify the avoidance response of the animal to the open arm maze. […] The effect of such potential anti-anxiety drugs may be tested further in a withdrawal challenge test.
Elevated Plus-Maze: The procedure originally described by Pellow et al., for rats was used, with minor modifications (Pellow et al., J. Neurosci. Meth., 14: 149, 1985). The apparatus consisted of two open arms (50×10 cm) and two enclosed arms (50×10×40 cm) extending from a central platform (10×10 cm). It was mounted on a base raising 50 cm above the floor. Light levels on the open and enclosed arms were similar. The animals were placed in the center of the maze and the time spent in the open arms and the total distance traveled by the rat were recorded automatically by a camera mounted above the apparatus, then analyzed by computer (Videomex™ software, Columbus Instruments, Columbus, Ohio). All animals used were naive to the apparatus. Animals were injected i.p. with saline or the different drug doses, and submitted to the test 30 minutes later. The test lasted 5 minutes, and the apparatus was thoroughly cleaned after removal of the animal.
The pumps were removed on day 14 and the animals were tested in the plus-maze 48 hours later, at the time when a state of withdrawal-induced anxiety was present in the rats. On the test day i.p. doses of either saline or the compound of Example 2 were administered to the animals 30 minutes before the test. Data (Table 13) represent the mean ±SEM time spent in the open arms of the plus-maze of 8-16 rats.

## Cc1cc([C@@H]2CCCN2C)on1.O=C(O)C(=O)O [Example 2, 3-Methyl-5-(1-methyl-2(S)-pyrrolidinyl)-isoxazole oxalate salt]
[1]; 1.9 μmol/kg i.p.
  1-4 Hz amplitude: 27.3 ± 5.0 μVolts
[1]; i.p.
  effect on low frequency (1-4 Hz) EEG slow-wave patterns: does not affect those patterns
[2]
  Ki: 160 µM
[3]
  EC50: 209 ± 76 µM
[4]; Table 1, oxalate salt, read-out: Nicotinic Receptor Ki
  Ki: 0.005 µM
[4]; Table 2, read-out: Nicotinic Ki
  Ki: 0.005 µM
[5]; 0.062 μmol/kg i.p.
  Sleeping time: 91 ± 20 % of controls
[5]; 0.19 μmol/kg i.p.
  Sleeping time: 68 ± 15 % of controls
[5]; 0.62 μmol/kg i.p.
  Sleeping time: 51 ± 8 % of controls
[5]; i.p., p<0.05, one-tailed t test
  effect of post-treatment on ethanol-induced narcosis: significantly reduced
[6]; 48 h after withdrawal of chronic (-)-nicotine
  effect on time spent in the open arms: significant increase in the time spent in the open arms
[6]; challenge 0.19 μmol/kg i.p.
  TIME OPEN ARMS: 36.8 ± 12.5 s
[6]; challenge 0.62 μmol/kg i.p., **p < 0.05 against chronic nicotine, saline-challenged
  TIME OPEN ARMS: 73.6 ± 7.7 s
[6]; challenge 1.9 μmol/kg i.p.
  TIME OPEN ARMS: 43.1 ± 10.1 s

Reference: US5409946A, “Isoxazole, isothiazole and pyrazole compounds that enhance cognitive function” (Abbott Laboratories, priority 1993, dated 1995)
